# Experimental data as given in patent publication US20130101628A1 (NORTHWESTERN UNIVERSITY, priority 2011, published 2013).
# * marks the point of attachment. Palmitoyl = CCCCCCCCCCCCCCCC(=O)*
# How the values were obtained:
# Format in all cases: cell-based, human
# HUVECs [1] = assay: HUVEC proliferation (CyQUANT-NF cell number); settings: 1 μM in EGM, 48 hours; untreated control 100.0%
# Experimental: In vitro studies were performed using HUVECs, a primary endothelial cell that is VEGF-responsive and frequently used as a model endothelial cell for angiogenesis studies in vitro [31].
# To evaluate proliferation, HUVECs were plated at 5000 per well in a 96 well plate. […] Additionally, unsupplemented growth media was used as a control. After 48 hours, cell number was quantified using CyQUANT-NF (Invitrogen) and a standard fluorescent microplate reader. Cell number is expressed relative to the group treated with unsupplemented growth media.
# HUVECs [2] = assay: HUVEC survival after serum-starvation (Annexin V-PE apoptosis); settings: 1 μM in EBM, serum-starvation 24 hours; untreated 31.7%
# Experimental: To evaluate cell survival, endothelial basal media (EBM) without growth factors (Lonza) was used to induce a serum-starvation. Cells were plated in 12 well plates and grown to confluence with standard growth media. […] Cells were grown in these conditions for 24 hours. Survival was quantified using Annexin V: PE staining with 7-AAD vital staining (BD Biosciences) following provided assay instructions and analyzed on a DakoCytomation CyAn. Survival was assessed by determining the fraction of cells that were apoptotic (Annexin V-PE positive).
# HUVECs [3] = assay: HUVEC migration scratch assay; settings: 1 μM in EBM with 0.5% FBS, 18 hours; untreated 25.2%
# Experimental: To evaluate cell migration, endothelial basal media (EBM) without growth factors (Lonza) was supplemented with 0.5% FBS in order to prevent apoptosis but not promote significant migration or proliferation. Cells were grown to confluence in a 12 well plate and a 1 ml pipette tip was used to create a denuded scratch and the surface was washed twice with PBS to remove detached cells. The average scratch width at the initial time-point was […] Markings were placed on the underside of the plate to ensure the same region of the scratch was recorded in each image. […] The total pixel area of the scratch at the initial time-point was recorded using ImageJ analysis software, and the percent migration was determined from the reduction in denuded area at 18 hours.
substance,measurement,setting,value
CH3(CH2)14C(O)— VVAAKKKGKLTWQELYQLKYKGI-NH2 (Palmitoyl-VVAAKKKGKLTWQELYQLKYKGI-NH2; SMILES CCCCCCCCCCCCCCCC(=O)N[C@H](C(=O)N[C@H](C(=O)N[C@@H](C)C(=O)N[C@@H](C)C(=O)N[C@@H](CCCCN)C(=O)N[C@@H](CCCCN)C(=O)N[C@@H](CCCCN)C(=O)NCC(=O)N[C@@H](CCCCN)C(=O)N[C@@H](CC(C)C)C(=O)N[C@H](C(=O)N[C@@H](Cc1c[nH]c2ccccc12)C(=O)N[C@@H](CCC(N)=O)C(=O)N[C@@H](CCC(=O)O)C(=O)N[C@@H](CC(C)C)C(=O)N[C@@H](Cc1ccc(O)cc1)C(=O)N[C@@H](CCC(N)=O)C(=O)N[C@@H](CC(C)C)C(=O)N[C@@H](CCCCN)C(=O)N[C@@H](Cc1ccc(O)cc1)C(=O)N[C@@H](CCCCN)C(=O)NCC(=O)N[C@H](C(N)=O)[C@@H](C)CC)[C@@H](C)O)C(C)C)C(C)C) [VEGF-PA],proliferation (cell number relative to unsupplemented growth media),HUVECs [1],137.0%±2.4%
same,fraction of apoptotic cells (Annexin V-PE positive),HUVECs [2],10.2%±3.2%
same,reduction in scratch wound size (denuded area),HUVECs [3],68.7%±4.2%
